# Results from PubChem BioAssay (NCI).
#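 Grown in 96-well plates, cells were treated for 48 hours with each compound at five concentrations. Insufficient inhibition: endpoint recorded as highest concentration tested. GI50: concentration for 50% inhibition of growth. TGI marks complete inhibition of growth.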
# Experiments:
# Test in all cases: inhibition of tumour cell growth, NCI panel, 48 h
# [1] = test system: HT29 colon
# [2] = test system: EKVX NSCLC
# [3] = test system: SK-MEL-5 melanoma
# [4] = test system: TK-10 renal
# [5] = test system: DU-145 prostate
# [6] = test system: K-562 leukemia
# [7] = test system: CCRF-CEM leukemia
# [8] = test system: SK-MEL-2 melanoma
# [9] = test system: SW-620 colon
# [10] = test system: LOX IMVI melanoma
# [11] = test system: HOP-62 NSCLC
# [12] = test system: SK-MEL-28 melanoma
# [13] = test system: SNB-19 CNS
# [14] = test system: NCI-H226 lung
# [15] = test system: A549 NSCLC
# [16] = test system: MCF7 breast
# [17] = test system: ACHN renal
# [18] = test system: SF-539 CNS
# [19] = test system: KM12 colon
# [20] = test system: SK-OV-3 ovarian
# [21] = test system: M14 melanoma
# [22] = test system: OVCAR-5 ovarian
# [23] = test system: OVCAR-8 ovarian
# [24] = test system: HOP-92 NSCLC
# [25] = test system: HS 578T breast
# [26] = test system: SNB-75 CNS
# [27] = test system: SN12C renal
# [28] = test system: UACC-257 melanoma
# [29] = test system: SR leukemia
structure (smiles),measurement,setting,value
COc1ccc(CC(C)=C(c2ccc(OCCN3CCCC3)cc2)c2ccc(OCCN3CCCC3)cc2)cc1,TGI,[1],3.31 µM
same,GI50,[2],3.68 µM
same,TGI,[2],7.02 µM
same,GI50,[3],3.81 µM
same,TGI,[3],7.05 µM
same,GI50,[4],3.66 µM
same,TGI,[4],7.28 µM
same,GI50,[5],3.32 µM
same,TGI,[5],6.43 µM
same,GI50,[6],0.497 µM
same,TGI,[6],1.28 µM
same,GI50,[7],3.97 µM
same,TGI,[7],11.9 µM
same,GI50,[8],3.68 µM
same,TGI,[8],6.97 µM
same,GI50,[9],2.23 µM
same,TGI,[9],5.25 µM
same,GI50,[10],1.07 µM
same,TGI,[10],3.94 µM
same,GI50,[11],3.74 µM
same,TGI,[11],7.93 µM
same,GI50,[12],3.6 µM
same,TGI,[12],6.83 µM
same,GI50,[13],3.93 µM
same,TGI,[13],7.32 µM
same,GI50,[14],3.2 µM
same,TGI,[14],6.63 µM
same,GI50,[15],3.1 µM
same,TGI,[15],7.39 µM
same,GI50,[16],0.841 µM
same,TGI,[16],3.2 µM
same,GI50,[17],3.36 µM
same,TGI,[17],6.48 µM
same,GI50,[18],3.59 µM
same,TGI,[18],6.84 µM
same,GI50,[19],3.49 µM
same,TGI,[19],6.77 µM
same,GI50,[20],4.19 µM
same,TGI,[20],7.93 µM
same,GI50,[21],0.722 µM
same,TGI,[21],2.5 µM
same,GI50,[22],3.49 µM
same,TGI,[22],6.68 µM
same,GI50,[23],3.64 µM
same,TGI,[23],7.29 µM
same,GI50,[24],0.773 µM
same,TGI,[24],3.92 µM
same,GI50,[25],2.99 µM
same,TGI,[25],7.17 µM
same,GI50,[26],2.69 µM
same,TGI,[26],5.74 µM
same,GI50,[27],3.49 µM
same,TGI,[27],6.74 µM
same,GI50,[28],3.95 µM
same,TGI,[28],7.59 µM
same,GI50,[29],0.483 µM
same,TGI,[29],1.3 µM
